Data reported in ChEMBL document CHEMBL2429836, “Theoretical studies, synthesis, and biological activity of 1-[(4-methylphenyl)sulfonyl]-5-oxo-2,3,4,5-tetrahydro-1H-1-benzazepine-4-carbonitrile (C9) as a non-peptide antagonist of the arginine vasopressin V1a and V2 receptors” (Med Chem Res, 2013).
Calls of active or inactive are those of the source. The calls are words filed in the database; no cut-off is given here. Numbered stars: 1 amine (or outer) side, 2 acyl side, 3 side chain; on linkers, the order of the positions; unused ones are H or OH. Bridge positions count the residues as written; N and C are the ends. Peptide text beside a SMILES is read from it. X1 = CC(C)(CC(=O)[*:1])S[*:2]

Key:
[1] = biological target: Vasopressin V1a receptor (Rattus norvegicus) (UniProt P30560); assay: Antagonist activity at vasopressin V1a receptor in rat thoracic aorta assessed as inhibition of AVP-induced vascular smooth muscle contraction at 590 uM; assay type: tissue-based
Sequence of Vasopressin V1a receptor (Rattus norvegicus) (P30560 whole entry, looked up): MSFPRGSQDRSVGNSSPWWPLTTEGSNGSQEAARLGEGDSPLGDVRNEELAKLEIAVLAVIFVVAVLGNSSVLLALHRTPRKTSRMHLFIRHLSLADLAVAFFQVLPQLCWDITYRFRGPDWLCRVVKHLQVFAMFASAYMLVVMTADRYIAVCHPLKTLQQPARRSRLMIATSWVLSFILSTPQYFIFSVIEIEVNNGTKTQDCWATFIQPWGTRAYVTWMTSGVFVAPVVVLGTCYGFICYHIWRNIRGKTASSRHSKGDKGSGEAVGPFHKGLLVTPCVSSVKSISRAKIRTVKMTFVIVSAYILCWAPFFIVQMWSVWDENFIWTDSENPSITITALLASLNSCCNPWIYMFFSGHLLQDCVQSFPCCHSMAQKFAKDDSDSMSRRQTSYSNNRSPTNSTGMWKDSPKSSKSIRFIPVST

[2] = biological target: Vasopressin V1a receptor (Rattus norvegicus) (UniProt P30560); assay: Antagonist activity at vasopressin V1a receptor in rat thoracic aorta assessed as inhibition of AVP-induced vascular smooth muscle contraction at 5.9 uM; assay type: tissue-based
[3] = biological target: Vasopressin V1a receptor (Rattus norvegicus) (UniProt P30560); assay: Antagonist activity at vasopressin V1a receptor in rat thoracic aorta assessed as inhibition of AVP-induced vascular smooth muscle contraction at 59 uM; assay type: tissue-based
[4] = biological target: Vasopressin V1a receptor (Rattus norvegicus) (UniProt P30560); assay: Antagonist activity at vasopressin V1a receptor in rat thoracic aorta assessed as inhibition of AVP-induced vascular smooth muscle contraction; assay type: tissue-based
Rattus norvegicus = assay: Antidiuretic acitivity in water-loaded Wistar rat assessed as inhibition of AVP-mediated decrease in urine flow at 100 ug/kg, iv; assay type: functional, organism-based
[5] = biological target: Vasopressin V1a receptor (Rattus norvegicus) (UniProt P30560); assay: Antagonist activity at vasopressin V1a receptor in endothelium intact rat thoracic aorta assessed as inhibition of AVP-induced vascular smooth muscle contraction at 10 uM
[6] = biological target: Vasopressin V1a receptor (Rattus norvegicus) (UniProt P30560); assay: Antagonist activity at vasopressin V1a receptor in endothelium-denuded rat thoracic aorta assessed as inhibition of AVP-induced vascular smooth muscle contraction at 10 uM

inhibition [1]	inhibition [2]	inhibition [3]	inhibition [4]	SMILES	inhibition (Rattus norvegicus)	inhibition [5]	inhibition [6]
Active	25%	70%	Dose-dependent effect	Cc1ccc(S(=O)(=O)N2CCC(C#N)C(=O)c3ccccc32)cc1 (configuration not stated)	Active	–	–
–	–	–	–	COc1ccc(C[C@@H]2NC(=O)CC(C)(C)SSC[C@@H](C(=O)N3CCC[C@H]3C(=O)N[C@@H](CCCN=C(N)N)C(=O)NCC(N)=O)NC(=O)[C@H](CC(N)=O)NC(=O)[C@H](CCC(N)=O)NC(=O)[C@H](Cc3ccccc3)NC2=O)cc1 (Y(Me)FQNCPRG-NH2; linker N-5 via X1)	–	Active	Active
